Tested on: un-transformed soybean explants
Test: Glyphosate dose response study on un-transformed soybean explants in tissue culture media
Assay type: in vivo, soybean (Glycine max)
Details: for Number of Explants at Various Stages of Selection: SE-1 / Number of Explants at Various Stages of Selection: SE-2 / Number of Explants at Various Stages of Selection: SI-2 / Number of Explants at Various Stages of Selection: End of SE-2: 49 explants at CC; for Number of Explants at Various Stages of Selection: End of SE-2: six weeks on selection
Protocol: Initially, a dose response study was completed. To test the effect of glyphosate on the explants, glyphosate was added to media used from the shoot initiation stage and onwards. Glyphosate was tested from the range of 0.025-0.2 mM. Incorporation of glyphosate in tissue culture media within this concentration range has been reported in soybean (Clemente et al., 2000; Hinchee et al., 1996; Martinell et al., 2006; Martinell et al., 1999; Martinell et al., 2002), tobacco (Singer et al., 1985), cotton (Zhao et al., 2006) and wheat (Hu et al., 2003). Five concentrations of glyphosate were tested for culturing of un-transformed soybean explants. The concentrations incorporated into the SI-2 media were 0.025 mM, 0.05 mM, 0.075 mM, 0.1 mM and 0.2 mM. The un-transformed soybean explants were maintained on the same rate of glyphosate selection for all the successive stages of subculture from SI-2 media to the completion of the tissue culturing protocol. The numbers of healthy explants were counted at each subculture stage. Dead explants were discarded and healthy explants were subcultured further onto appropriate media.
Growth of the explants was also retarded on glyphosate containing media. Next the cotyledons were removed and the explants were subcultured from SI-2 to SE media. At the end of another two weeks of selection on SE media, significant differences in the growth of the explants were observed when the explants were exposed to different levels of glyphosate. The retarded growth of the explants was proportionate to the increasing dose of glyphosate. Similarly the number of dead explants was also proportional to the increasing dose of glyphosate. The number of dead explants increased as the dose of glyphosate was increased. […] Subsequently, three different concentrations of glyphosate (e.g., 0.025 mM, 0.05 mM and 0.1 mM) were incorporated into the selection schemes for Agrobacterium-mediated transformation of the soybean split-seed explants comprising a portion of an embryonic axis.

[1] = 0.025 mM glyphosate in media from SI-2 onwards
[2] = 0.05 mM glyphosate in media from SI-2 onwards
[3] = 0.075 mM glyphosate in media from SI-2 onwards
[4] = 0.1 mM glyphosate in media from SI-2 onwards
[5] = 0.2 mM glyphosate in media from SI-2 onwards

For `O=C(O)CNCP(=O)(O)O` [Glyphosate, glyphosate], the “Number of Explants at Various Stages of Selection: SE-1” value (“Number … of Selection: SE-1” for short) [1] was 41, the “Number of Explants at Various Stages of Selection: SE-2” value (from here on “Number … of Selection: SE-2”) [1] was 38 and the “Number of Explants at Various Stages of Selection: SI-2” value (“Number … of Selection: SI-2” for short) [1] was 43. For the same compound, the “Number of Explants at Various Stages of Selection: End of SE-2” value (from here on “Number … of Selection: End of SE-2”) [1] was “none of the soybean explants were able to survive”, the “Number … of Selection: SE-1” value [2] was 45 and the “Number … of Selection: SE-2” value [2] was 38. For the same compound, the “Number … of Selection: SI-2” value [2] was 45, the “Number … of Selection: End of SE-2” value [2] was 0 and the “Number … of Selection: SE-1” value [3] was 45. The “Number … of Selection: SE-2” value [3] was 21, the “Number … of Selection: SI-2” value [3] was 47 and the “Number … of Selection: End of SE-2” value [3] was 0. For the same compound, the “Number … of Selection: SE-1” value [4] was 41, the “Number … of Selection: SE-2” value [4] was 13 and the “Number … of Selection: SI-2” value [4] was 44. For the same compound, the “Number … of Selection: End of SE-2” value [4] was 0, the “Number … of Selection: SE-1” value [5] was 31 and the “Number … of Selection: SE-2” value [5] was 1. The “Number … of Selection: SI-2” value [5] was 42, the “Number … of Selection: SE-2” value (0.2 mM glyphosate in media from SI-2 onwards, listed as glyphosate) was “only one explants survived” and the “Number … of Selection: End of SE-2” value [5] was 0. The “yellowing of the cotyledons” value (end of culturing on SI-2 media (about 2 weeks), 0.025-0.2 mM glyphosate, extent proportional to dose) was “explants showed yellowing of the cotyledons” and the “growth of the explants” value (glyphosate containing media, 0.025-0.2 mM, proportionate to dose) was “retarded”.
